US4101536A, “Muramyldipeptide derivatives and process for the preparation thereof” (Daiichi Seiyaku Co., Ltd., priority 1976, dated 1978)
Where “and” joins values, the source holds several entries; their conditions need not be identical. Identical values can stand only once.

Tests used:
[1] = system: mastocytoma P815-X2 cells; assay: Adjuvant activity on the induction of cell-mediated cytotoxic cells in the spleen of allogenic mice (Brunner's method); type: in vivo, C57BL/6J mice; details: phosphate buffered saline suspension, eleven days after
Description: Adjuvant activity on the induction of cell-mediated cytotoxic cells in the spleen of allogenic mice (C57BL/6J).
Three or four mice of C57BL/6J in each group were immunized intraperitoneally with a mixture of mastocytoma P815-X2 cells (1 × 10^4) and a test material dissolved or suspended in phosphate buffered saline. Control group was immunized with mastocytoma P815-X2 cells alone.
Eleven days after, cell-mediated cytotoxicity was determined by Brunner's method (Immunology 18, 501-515 1970).

Hartley guinea pigs = assay: Adjuvant activity on the induction of delayed-type hypersensitivity to ABA-Tyr (skin test); type: in vivo, guinea pig; details: with 50 μg ABA-Tyr in Freund's incomplete adjuvant, four footpads, skin test two weeks later, mm ± SE
Description: Adjuvant activity of the object compound on the induction of delayed-type hypersensitivity to ABA-Tyr.
Hartley guinea pigs were immunized into four footpads with 50 μg of N-acetyl-L-tyrosine-3-azobenzene-4'-arsonic acid (ABA-Tyr) in Freund's incomplete adjuvant with a test material dissolved or suspended in phosphate buffered saline. Control groups were immunized with ABA-Tyr alone in Freund's incomplete adjuvant.
Two weeks later, skin test with 100 μg of ABA-bacterial α-amylose (ABA-BαA) dissolved in saline was made and skin reaction was measured 24 hours after intradermal injection of test antigen.

MH134 hepatoma [2] = assay: Antitumor activity on the suppression of MH-134 hepatoma; type: in vivo, C3H/He mice; details: intradermal, A = mice with tumor growth completely suppressed, B = tested mice
Description: Antitumor activity on the suppression of MH-134 hepatoma in C3H/He mice
The antitumor activity of the compounds of this invention was examined by using MH134 hepatoma in syngeneic C3H/He mice. A mixture of tumor cells of MH134 (1 × 10^5) and materials (100 or 20 μg) dissolved or suspended in phosphate buffered saline and transplanted intradermally into C3H/He mice and the tumor growth was measured in inoculated sites.

MH134 hepatoma [3] = details: MH134 hepatoma in C3H/He; prior-art statement; cited from earlier work
ovalmin protein antigen = details: increased serum antibody levels and induction of delayed-type hypersensitivity; prior-art statement; cited from earlier work
melanoma B16 = melanoma B16 in C57BL/6J; prior-art statement; cited from earlier work
[4] = system: mastocytoma P815-X2 cells; details: immunization with allogeneic antigen, mastocytoma P815-X2 cell in vivo; prior-art statement; cited from earlier work
[5] = dose 10 μg/mice i.p. with P815-X2 cells (1 × 10^4)
[6] = dose 100 μg/mice i.p. with P815-X2 cells (1 × 10^4)
[7] = dose 100 μg mixed with MH134 cells (1 × 10^5)
[8] = dose 20 μg mixed with MH134 cells (1 × 10^5)

Compound	Specific Target Cell Lysis [1, 5] [%]	Specific Target Cell Lysis [1, 6] [%]	Skin reaction with 100μg of ABA-BαA at 24 hrs. (Hartley guinea pigs; dose 50 μg)	Skin reaction with 100μg of ABA-BαA at 24 hrs. (Hartley guinea pigs; dose 500 μg)	Antitumor Activity A/B Tumor Growth (MH134 hepatoma [2]; [7])	Skin reaction with 100μg of ABA-BαA at 24 hrs. (Hartley guinea pigs; dose 40 μg) [mm]	Skin reaction with 100μg of ABA-BαA at 24 hrs. (Hartley guinea pigs; dose 400 μg) [mm]	Antitumor Activity A/B Tumor Growth (MH134 hepatoma [2]; [8])	antitumor activity on syngeneic mouse tumor system (MH134 hepatoma [3])	immunoadjuvant activity (ovalmin protein antigen)	antitumor activity on syngeneic mouse tumor system (melanoma B16)	adjuvant activity in the generation of cell-mediated cytotoxic effector cells on the spleen [4]	Skin reaction with 100μg of ABA-BαA at 24 hrs. (Hartley guinea pigs; dose 100 μg) [mm]	Skin reaction with 100μg of ABA-BαA at 24 hrs. (Hartley guinea pigs; dose 30 μg) [mm]	Skin reaction with 100μg of ABA-BαA at 24 hrs. (Hartley guinea pigs; dose 300 μg) [mm]
6-O-mycomycoloyl-N-acetylmuramyl-L-alanyl-D-isoglutamine [Myco-L-Ala-D-isoGln]	3.9	69.7	22.8 ± 0.6 mm and 12.8 ± 1.6 mm	20.9 ± 0.8 mm and 17.1 ± 0.5 mm	10/10										
6-O-mycomycoloyl-N-acetylmuramyl-glycyl-D-isoglutamine [Myco-Gly-D-isoGln]	39.3 ± 3.2	77.0 ± 4.0	2.7 ± 0.7 mm	15.3 ± 0.6 mm	7/10										
6-O-mycomycoloyl-N-acetylmuramyl-L-ser-D-isoglutamine [Myco-L-Ser-D-isoGln]	21.8 ± 15.2	30.4 ± 14.0	18.0 ± 0.6 mm	15.0 ± 0.5 mm	10/10										
6-O-nocardomycoloyl-N-acetylmuramyl-L-alanyl-D-isoglutamine [Nocardo-L-Ala-D-isoGln]	21.0 ± 7.6	76.9 ± 3.2				24.5 ± 0.7	23.0 ± 1.5	5/10							
CCCCCCCCCCCCCCCCCC(=O)OCC1OC(O)C(NC(C)=O)C(OC(C)C(=O)NC(C)C(=O)NC(CCC(=O)O)C(N)=O)C1O (stereo not drawn) [Stearoyl-muramyldipeptide, 6-O-stearoyl-muramyldipeptide, reference compound]		4.2			0/10			0/10	no antitumor activity	immunological properties almost similar to those of muramyldipeptide	no antitumor activity	no adjuvant activity	17.2 ± 1.2		
6-O-corynomycoloyl-N-acetylmuramyl-L-alanyl-D-isoglutamine [Coryno-L-Ala-D-isoGln]	16.1 ± 5.0	28.8 ± 14.4						6/10						21.2 ± 1.9	22.0 ± 0.6
